We go through 13 molecules from patent publication US12344631B2, “C17 polar-substituted heteroaromatic synthetic triterpenoids and methods of use thereof” (REATA PHARMACEUTICALS, INC., priority 2019, dated 2025).

This test relates to RAW 264.7 cells. Description: Nitric oxide suppression assay (IFNγ-induced NO production). It is filed as cell-based, mouse. As to conditions: for IC50: Mus musculus, RAW264.7, RAW 264.7 cells, 2 h pretreatment, 20 ng/mL interferon gamma 24 h, nitrite by Griess, read-out: NO IC50 (nM) (Mean ± SD); for NO IC50 Relative to RTA 402 (fold) (Mean ± SD): average of ratios from replicate experiments, benchmark RTA 402. As to the method:
Tissue Culture. RAW 264.7, a mouse macrophage cell line, was obtained from American Type Culture Collection (Manassas VA) and maintained in the log phase of growth in Roswell Park Memorial Institute Medium 1640 (RPMI 1640) supplemented with 10% heat inactivated fetal bovine serum (FBS) and 1% penicillin-streptomycin. Cells were cultured and maintained in a humidified incubator at 37° C. under 5% CO2. Cells were sub-cultured every 3 days. […] All cell culture supplies were obtained from Life Technologies (Grand Island, NY) and VWR (Radnor, PA). Nitric Oxide Suppression Assay. RAW 264.7 cells were plated 1 day in advance of experimental treatments at a concentration of 30,000 cells per well onto Falcon-96 well clear bottom plates (Corning, NY) in a total volume of 200 μL per well using RPMI 1640 supplemented with 0.5% fetal bovine serum and 1% penicillin-streptomycin. The next day, cells were pretreated with compounds serially diluted from 1000× stocks. All compounds were dissolved in dimethyl sulfoxide (DMSO) at 10 mM stock solutions. Compounds were subsequently diluted in DMSO and RPMI 1640. Each well received a final concentration of 0.1% DMSO. Cells were pretreated for 2 hours and incubation at 37° C., followed by treatment with 20 ng/mL of interferon gamma (R&D Systems, Minneapolis, MN) per well for 24 hours. […] Afterwards, 50 μL of cell culture supernatant was transferred from each well into a new Falcon-96 well clear bottom plate. […] Afterwards, air bubbles were removed using ethanol vapor and absorbance was measured using a Spectramax M2e plate reader with a wavelength set to 525 nm. Viability was assessed using WST-1 cell proliferation reagent from Roche (Basel, Switzerland). After media was removed for the Nitric Oxide suppression assay, 15 μL of WST-1 reagent was added to each well of cells. Plates were briefly mixed on an orbital shaker and the cells were incubated at 37° C. for 30 minutes. Absorbance was measured using a Spectramax M2e plate reader with wavelengths set to 440 nm and 700 nm. For the ability of compounds to suppress the increase in nitric oxide release caused by interferon gamma, the absolute amount of nitrite that was produced in each well was extrapolated from the nitrite standards using a linear regression fit. All values were then normalized to the DMSO-interferon gamma treated wells and plotted as percent nitric oxide. IC50 values were calculated with a dependence on WST1 viability using Excel and/or GraphPad Prism (San Diego, CA).

`CC(=O)OCCn1nnc([C@]23CCC(C)(C)C[C@H]2[C@H]2C(=O)C=C4[C@@]5(C)C=C(C#N)C(=O)C(C)(C)[C@@H]5CC[C@@]4(C)[C@]2(C)CC3)n1` [Compound T8]: the IC50 was 0.64 nM and the “NO IC50 Relative to RTA 402 (fold) (Mean ± SD)” value came to 0.41 fold.

For the molecule `COCCn1nnc([C@]23CCC(C)(C)C[C@H]2[C@H]2C(=O)C=C4[C@@]5(C)C=C(C#N)C(=O)C(C)(C)[C@@H]5CC[C@@]4(C)[C@]2(C)CC3)n1` [Compound T9], the IC50 turned out to be 1.27 nM and the “NO IC50 Relative to RTA 402 (fold) (Mean ± SD)” value is given as 0.82 fold.

In the case of `CC(=O)OCCc1noc([C@]23CCC(C)(C)C[C@H]2[C@H]2C(=O)C=C4[C@@]5(C)C=C(C#N)C(=O)C(C)(C)[C@@H]5CC[C@@]4(C)[C@]2(C)CC3)n1` [Compound T14], the IC50 came to 0.48 nM and the “NO IC50 Relative to RTA 402 (fold) (Mean ± SD)” value is 0.31 fold.

As for `COCCc1noc([C@]23CCC(C)(C)C[C@H]2[C@H]2C(=O)C=C4[C@@]5(C)C=C(C#N)C(=O)C(C)(C)[C@@H]5CC[C@@]4(C)[C@]2(C)CC3)n1` [Compound T15], the IC50 was 0.6 ± 0.05 nM and the “NO IC50 Relative to RTA 402 (fold) (Mean ± SD)” value is 0.38 ± 0.04 fold.

As for `COC(=O)NCCc1noc([C@]23CCC(C)(C)C[C@H]2[C@H]2C(=O)C=C4[C@@]5(C)C=C(C#N)C(=O)C(C)(C)[C@@H]5CC[C@@]4(C)[C@]2(C)CC3)n1` [Compound T17], the IC50 was determined as 0.75 nM and the “NO IC50 Relative to RTA 402 (fold) (Mean ± SD)” value was found to be 0.48 fold.

Take `CCNC(=O)NCCc1noc([C@]23CCC(C)(C)C[C@H]2[C@H]2C(=O)C=C4[C@@]5(C)C=C(C#N)C(=O)C(C)(C)[C@@H]5CC[C@@]4(C)[C@]2(C)CC3)n1` [Compound T18]: the half-inhibitory concentration (IC50) was 1.33 nM and the “NO IC50 Relative to RTA 402 (fold) (Mean ± SD)” value was found to be 0.86 fold.

Turning to `CC(=O)NCCc1noc([C@]23CCC(C)(C)C[C@H]2[C@H]2C(=O)C=C4[C@@]5(C)C=C(C#N)C(=O)C(C)(C)[C@@H]5CC[C@@]4(C)[C@]2(C)CC3)n1` [Compound T19], the IC50 is 0.94 nM and the “NO IC50 Relative to RTA 402 (fold) (Mean ± SD)” value turned out to be 0.60 fold.

As to `CCCc1noc([C@]23CCC(C)(C)C[C@H]2[C@H]2C(=O)C=C4[C@@]5(C)C=C(C#N)C(=O)C(C)(C)[C@@H]5CC[C@@]4(C)[C@]2(C)CC3)n1` [Compound T26], the half-maximal inhibitory concentration (IC50) was 7.82 nM and the “NO IC50 Relative to RTA 402 (fold) (Mean ± SD)” value worked out at 4.83 fold.

In the case of `CC(C)c1noc([C@]23CCC(C)(C)C[C@H]2[C@H]2C(=O)C=C4[C@@]5(C)C=C(C#N)C(=O)C(C)(C)[C@@H]5CC[C@@]4(C)[C@]2(C)CC3)n1` [Compound T27], the 50% inhibitory concentration (IC50) was determined as 6.03 nM and the “NO IC50 Relative to RTA 402 (fold) (Mean ± SD)” value stood at 3.72 fold.

In the case of `CC1(C)CC[C@]2(c3nc(C(C)(C)C)no3)CC[C@]3(C)[C@H](C(=O)C=C4[C@@]5(C)C=C(C#N)C(=O)C(C)(C)[C@@H]5CC[C@]43C)[C@@H]2C1` [Compound T28], the IC50 is 22.3 nM and the “NO IC50 Relative to RTA 402 (fold) (Mean ± SD)” value is recorded as 13.75 fold.

Consider `CC1(C)CC[C@]2(c3nc(C4CCC4)no3)CC[C@]3(C)[C@H](C(=O)C=C4[C@@]5(C)C=C(C#N)C(=O)C(C)(C)[C@@H]5CC[C@]43C)[C@@H]2C1` [Compound T31], for which the IC50 was 9.34 nM and the “NO IC50 Relative to RTA 402 (fold) (Mean ± SD)” value was determined as 5.76 fold.

As for `CC1(C)CC[C@]2(c3nc(C4CCCC4)no3)CC[C@]3(C)[C@H](C(=O)C=C4[C@@]5(C)C=C(C#N)C(=O)C(C)(C)[C@@H]5CC[C@]43C)[C@@H]2C1` [Compound T32], the IC50 turned out to be 20.8 nM and the “NO IC50 Relative to RTA 402 (fold) (Mean ± SD)” value is listed as 12.84 fold.

In the case of `CC1(C)CC[C@]2(c3nc(C4CCCCC4)no3)CC[C@]3(C)[C@H](C(=O)C=C4[C@@]5(C)C=C(C#N)C(=O)C(C)(C)[C@@H]5CC[C@]43C)[C@@H]2C1` [Compound T33], the IC50 was determined as 25.6 nM and the “NO IC50 Relative to RTA 402 (fold) (Mean ± SD)” value is 15.81 fold.

A word on the IC50: it is the midpoint of a concentration-inhibition curve.
